Test results reported in article PMC12406253, “Exploration of the Neuromodulatory Properties of Fyn and GSK-3β Kinases Exploiting 7‑Azaindole-Based Inhibitors” (Journal of Medicinal Chemistry, 2025).
Blank lines part the entries; values can stand above or below the molecule they belong to.

Assays:
[1] = system: immortalized murine microglia N9; assay: Immunomodulation in LPS-treated N9 microglia, Western blot of iNOS and TREM2; details: 2.5 and 5 μM; 100 ng/mL LPS, 24 h
Procedure: To gain a conclusive answer on the potential role of these kinase inhibitors in counteracting neuroinflammatory processes, after the verified induced astrocytic polarization, the ability of selected compounds to modulate inflammatory response was analyzed by favoring the immunomodulatory switch from neurotoxic M1 phenotype of microglia to phagocytic and neuroprotective M2 phenotype, evaluating inducible nitric oxide synthase (iNOS) and TREM2 as M1 and M2 markers (Figure ).
The microglial phenotype was evaluated through Western blot analysis of the pro-inflammatory iNOS and anti-inflammatory-TREM2 markers.

human recombinant GSK-3β = human recombinant GSK-3β (Homo sapiens, UniProt P49841); assay: GSK-3β kinase assay, LANCE Ultra TR-FRET; format: biochemical
Sequence of human recombinant GSK-3β (P49841 whole entry): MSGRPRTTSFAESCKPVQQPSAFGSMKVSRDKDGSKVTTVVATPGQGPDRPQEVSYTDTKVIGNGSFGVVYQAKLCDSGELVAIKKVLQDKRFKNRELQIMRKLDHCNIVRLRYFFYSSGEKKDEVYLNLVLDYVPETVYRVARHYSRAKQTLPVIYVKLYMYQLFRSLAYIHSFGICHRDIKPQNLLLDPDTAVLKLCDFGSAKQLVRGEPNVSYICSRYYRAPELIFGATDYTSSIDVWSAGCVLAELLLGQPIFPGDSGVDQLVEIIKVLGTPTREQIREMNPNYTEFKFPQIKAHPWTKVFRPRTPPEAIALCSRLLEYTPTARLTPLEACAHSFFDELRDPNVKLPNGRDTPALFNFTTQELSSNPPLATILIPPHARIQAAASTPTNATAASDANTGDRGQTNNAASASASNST
Procedure: GSK-3β and FYNα kinase assays were run in 384-well microplates (OptiPlate-384, White, PerkinElmer) in a total reaction volume of 20 μL. The inhibitory potency against human recombinant GSK-3β and FYNα (Carna Biosciences) was evaluated using the LANCE Ultra (PerkinElmer) time-resolved fluorescence resonance energy transfer (TR-FRET) by measuring the phosphorylation of the ULight-labeled substrate, according to the manufacturer's instructions. […] Briefly, test compounds and staurosporine (reference compound) or DMSO (control) are mixed with the enzyme (GSK-3β: 2 nM and FYNα: 1 nM) in a buffer containing 50 mM HEPES (pH 7.5), 1 mM EGTA, 10 mM MgCl2, 2 mM DTT, and 0.01% Tween-20. […] Following incubation, the reaction is stopped by adding 6 mM EDTA. After 5 min, the antiphospho antibody labeled with europium chelate is added. After 1 more hour, the kinase reaction is monitored by irradiation at 320 nm and the fluorescence measured at 615 and 665 nm, using EnVision 2014 Multilabel Reader (PerkinElmer). The calculated signal ratio at 665/615 nm is proportional to the extent of ULight-substrate phosphorylation. The compounds were tested at 11 different concentrations ranging from 3 nM up to 100 μM in triplicate. […] The results were expressed as a percent inhibition of the control enzyme activity. Dose-response curves were run in at least three independent experiments, performed in three technical replicates. IC50 values (concentrations causing half-maximal enzyme inhibition) were determined by nonlinear regression analysis of the Log[concentration]/response curves generated with mean replicate values using a four parameter Hill equation curve fitting with GraphPad Prism 8 (GraphPad Software Inc., CA-USA).

[2] = system: primary rat cerebellar granule neurons (CGNs); assay: Neurotoxicity, cell viability in CGNs (MTT); format: cell-based; details: 5, 10, and 25 μM, 24 h
Procedure: A preliminary cell viability assessment was conducted in primary rat cerebellar granule neurons (CGNs), which are considered a reliable model for studying cellular and molecular mechanisms of survival/apoptosis and neurodegeneration/neuroprotection.
Primary cerebellar granule cells were dissociated from cerebella and plated on 96-well plates, previously coated with 10 μg/mL poly-L-lysine, at a density of 1.2 × 10^5 cells/0.2 mL medium/well in BME supplemented with 10% heat-inactivated FBS (Life Technologies), 2 mmol/L glutamine, 100 μmol/L gentamicin sulfate, and 25 mM KCl (all from Sigma-Aldrich). Sixteen hours later, 10 μM cytosine arabinofuranoside (Sigma-Aldrich) was added to avoid glial proliferation. After 7 days in vitro, differentiated neurons were shifted to serum-free BME medium and exposed to increasing concentrations (5 μM, 10 μM, 25 μM) of compounds of interest for 24 h. Then, cell viability was evaluated through the MTT assay.

FYNα = FYNα (Homo sapiens, UniProt P06241); assay: FYNα kinase assay, LANCE Ultra TR-FRET; format: biochemical; details: for Fyn % Inhibition @ 50 μM: mean ± SD, n.i. = no inhibition; for IC50: mean ± SD of at least three independent determinations, ATP near Km, read-out: Fyn IC50
Sequence of FYNα (P06241 whole entry): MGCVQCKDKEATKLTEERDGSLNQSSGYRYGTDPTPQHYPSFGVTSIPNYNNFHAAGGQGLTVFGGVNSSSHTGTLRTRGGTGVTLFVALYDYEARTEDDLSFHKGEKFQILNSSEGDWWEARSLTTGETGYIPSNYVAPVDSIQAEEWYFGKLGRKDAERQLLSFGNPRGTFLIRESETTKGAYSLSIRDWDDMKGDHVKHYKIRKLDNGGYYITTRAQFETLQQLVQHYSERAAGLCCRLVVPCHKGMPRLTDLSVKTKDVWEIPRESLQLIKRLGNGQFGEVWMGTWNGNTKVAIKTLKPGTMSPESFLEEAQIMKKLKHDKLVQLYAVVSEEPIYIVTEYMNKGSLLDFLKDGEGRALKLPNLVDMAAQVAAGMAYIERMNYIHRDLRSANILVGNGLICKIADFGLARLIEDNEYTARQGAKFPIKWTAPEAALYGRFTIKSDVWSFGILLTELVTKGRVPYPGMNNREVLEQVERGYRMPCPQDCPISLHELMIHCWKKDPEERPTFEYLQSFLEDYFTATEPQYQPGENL
Procedure: GSK-3β and FYNα kinase assays were run in 384-well microplates (OptiPlate-384, White, PerkinElmer) in a total reaction volume of 20 μL. The inhibitory potency against human recombinant GSK-3β and FYNα (Carna Biosciences) was evaluated using the LANCE Ultra (PerkinElmer) time-resolved fluorescence resonance energy transfer (TR-FRET) by measuring the phosphorylation of the ULight-labeled substrate, according to the manufacturer’s instructions. The synthetic peptide surrounding Ser641 of human muscle glycogen synthase (ULight-GS (Ser641/pSer657)) and the synthetic 28-amino acid peptide containing eight Tyr residues placed in different amino acid contexts (ULightTM-TK (PT66)) were selected as specific substrates for GSK-3β and FYNα, respectively. Briefly, test compounds and staurosporine (reference compound) or DMSO (control) are mixed with the enzyme (GSK-3β: 2 nM and FYNα: 1 nM) in a buffer containing 50 mM HEPES (pH 7.5), 1 mM EGTA, 10 mM MgCl2, 2 mM DTT, and 0.01% Tween-20. […] Following incubation, the reaction is stopped by adding 6 mM EDTA. After 5 min, the antiphospho antibody labeled with europium chelate is added. After 1 more hour, the kinase reaction is monitored by irradiation at 320 nm and the fluorescence measured at 615 and 665 nm, using EnVision 2014 Multilabel Reader (PerkinElmer). The calculated signal ratio at 665/615 nm is proportional to the extent of ULight-substrate phosphorylation. The compounds were tested at 11 different concentrations ranging from 3 nM up to 100 μM in triplicate. […] The results were expressed as a percent inhibition of the control enzyme activity.
Dose–response curves were run in at least three independent experiments, performed in three technical replicates. IC50 values (concentrations causing half-maximal enzyme inhibition) were determined by nonlinear regression analysis of the Log[concentration]/response curves generated with mean replicate values using a four parameter Hill equation curve fitting with GraphPad Prism 8 (GraphPad Software Inc., CA-USA).

[3] = system: neurospheres (NPCs from the subventricular zone); assay: Neurosphere growth analysis (NPC proliferation); format: cell-based, mice; details: 0.1, 1, and 5 μM; 7 days
Procedure: Based on that, we further investigated the neurogenic and differentiation potential of our kinase inhibitors in cell culture of neurospheres, which are floating pools of NPCs coming from the subventricular zone (SVZ) of six-month-old mice. Particularly, we first analyzed the variation, during 7 days, in number and size of neurosphere population with and without treatment.
To investigate the effect of compounds of interest in neurospheres’ growth rate, single spheres were plated in suspension in 96-well plates (5 × 10^3 cells/well) in the presence of compounds (0.1 μM, 1 μM, and 5 μM) in complete DMEM F-12 culture medium. One image/well was acquired every day by using the Sartorius Incucyte Live-Cell Analysis System and evaluated through the Brightfield Spheroid Analysis Software Module. Only aggregates with areas larger than 400 μm^2 were considered for statistical analysis.

[4] = system: neurospheres (NPCs from the subventricular zone); assay: Neurosphere differentiation, immunofluorescence of DCX, GFAP, OLIG2; format: cell-based, mice; details: 1 μM; 7 days
Excerpt: Lastly, we move forward to evaluate the neuromodulatory profile of selected compounds that involves the capability to polarize the spontaneous differentiation of neurospheres, which potentially can maturate in neurons or macroglia, such as astrocytes and oligodendrocytes. Modulating NPC differentiation is especially relevant under neurodegenerative conditions as it could offer an intriguing opportunity to achieve polyhedric therapeutic effects. Importantly, neuronal differentiation may help to counteract the progressive neuronal loss, while promoting oligodendrocyte phenotype could support remyelination and neuronal function and the astrocytic polarization may aid to foster a neuroprotective profile. Particularly, after 7 days of treatment at 1 μM, in the same experimental conditions previously reported, cells were fixed and stained with different antibody markers such as doublecortin (DCX) for the immature neurons, glial fibrillary acidic protein (GFAP) for astrocytes, and oligodendrocyte transcription factor 2 (OLIG2) for oligodendrocyte precursors for immunofluorescence analysis (Figure a). […] By driving the maturation of astrocytes, compounds 41 and 43 could exert neuroprotection through multiple mechanisms, including the secretion of neurotrophic factors, enhancement of antioxidant defenses, regulation of water balance, ion homeostasis, and glutamate buffering and recycling. Furthermore, astrocytes support the integrity of the blood–brain barrier (BBB) and aid in the refinement of neural networks via synaptic pruning, further reinforcing their role in preserving brain function and structure.
NSCs were initially obtained by SVZ microdissection of 6 months-old C57BL/6N wild-type male mice (Mus musculus) and routinely cultured in suspension in DMEM-F12 (Gibco; ThermoFisher Scientific, Waltham, MA, USA) supplemented with 2 mM glutamine, 10 μg/mL insulin from bovine pancreas (Sigma-Aldrich; St Louis, MO, USA), 20 ng/mL epidermal growth factor (EGF; PeproTech EC, London, UK), 20 ng/mL fibroblast growth factor-2 (FGF2; PeproTech), 1% N2 (ThermoFisher Scientific), 1% B27 (ThermoFisher Scientific), 10 units/mL penicillin, and 10 μg streptomycin.
To assess the effect of compounds of interest in NSCs differentiation, 30 spheres were plated on 13 mm glass coverslips, previously coated with Matrigel matrix (Corning; New York, USA), in complete DMEM F-12 medium, and treated with 1 μM of compounds of interest. After 7DIV, neurospheres were fixed for 20 min with 4% PFA in PBS 0.1% pH 7.4. Fixed neurospheres were permeabilized in 0.1% Triton/PBS and nonspecific sites were blocked for 1 h with 0.1% Triton/PBS and 5% normal goat serum (Sigma-Aldrich; St Louis, MO, USA). Cells were then incubated overnight at 4 °C with the following primary antibodies: Anti-Doublecortin DCX (Abcam, Cambridge, UK), GFAP (Dakopatts), OLIG2 (Santa Cruz Biotechnology), 1:500 dilution in 0.1% Triton/PBS with 2% normal goat serum. After 3 washes in 0.1% Triton/PBS, specific secondary antibodies were added for 2 h at RT in the dark: Donkey anti-Mouse IgG Alexafluor 555 (Abcam, Cambridge, UK), Goat anti-Rabbit IgG Alexafluor 555 (Abcam, Cambridge, UK), 1:1000 dilution in 0.1% Triton/PBS with 2% normal goat serum. Following 3 washes in 0.1% Triton/PBS, nuclei were stained with DAPI (2 μg/mL, Sigma-Aldrich) for 5 min. Glass coverslips were mounted by using Ultracruz Aqueous Mounting Medium with DAPI (Santa Cruz Biotechnology). Neurospheres confocal images were obtained with a Nikon EZ-C1 microscope (60× objective) and the z-stack function (1024 steps and 1 μm thickness layers; 40 total stacks). 3D image reconstruction was performed by using Fiji ImageJ2 software, z-project plugin, and selecting the sum stacks’ function. Fluorescence intensity index was estimated as the ratio of markers’ positive cells intensity/total cells fluorescence intensity stained with DAPI per ROI.

[5] = system: primary rat cerebellar granule neurons (CGNs); assay: Neuroprotection in CGNs, serum/potassium deprivation (MTT); format: cell-based; details: 5, 10, and 25 μM, 48 h
Excerpt: First, we evaluated the neuroprotective properties of the selected compounds in the same cell line, once the expression of Fyn and GSK-3β in this cellular model was verified (Figure S2), after a serum/potassium deprivation experiment, which simulates physiological aging (and mortality), triggering around 20% of cell death. In particular, 7 days differentiated CGNs were exposed to serum-free BME medium with low extracellular concentration of K^+ ions and treated at selected doses (i.e., 5, 10, and 25 μM) of compounds for 48 h. Neuronal viability was then determined with an MTT assay.
To evaluate the neuroprotective effect of our compounds, we tested increasing concentrations (5 μM, 10 μM, 25 μM) of compounds of interest in differentiated CGNs switched to serum-free BME medium with 5 mM KCl (serum-potassium deprivation) for 48 h to mimic in vitro the naturally occurring death of granule cells. Neuroprotection was evaluated through MTT assay.
For MTT assay, thiazolyl blue was added to the culture medium at a final concentration of 0.1 mg/mL. Following a 20 min incubation at 37 °C in the dark, the MTT precipitate was dissolved in 0.1 M Tris–HCl pH 7.5 buffer containing 5% Triton X-100 (all from Sigma-Aldrich) and absorbance was read at 570 nm in a microplate spectrophotometric reader (Bio-Rad).

[6] = BBB permeability in hCMEC/D3 transwell model; details: human
Procedure: To this aim, the immortalized human brain endothelial cell line (hCMEC/D3) was used since it mimics the brain endothelium-restricted permeability and expresses most of the transporters and receptors present in vivo, constituting a valuable in vitro model of the human BBB crossing system.
BBB permeability assay was conducted as described in Albertini et al. The brain microvascular endothelial cells (hCMEC/D3) were seeded at the density of 5 × 10^4 cells per cm^2 in the upper compartment of Transwell filters (polyester, pore size 0.4 μm, 12-well tissue culture transwell; Corning), precoated with rat tail collagen type I (0.1 mg/mL; Roche). They were grown for 7 days up to confluence in Endothelial Cell Growth Medium 2 (Promocell), supplemented with penicillin/streptomycin 100 U/mL, in a humidified, 5% CO2 incubator at 37 °C. Confluent monolayers were washed in prewarmed HBSS buffer, and the selected compounds were added to the apical (AP) side at a concentration of 100 μM. […] Samples (100 μL) were collected from the BL side at different time points (15, 30, 60, and 90 min) and then replaced with the corresponding volume of HBSS buffer. […] The concentration of compounds was determined using a Ultimate 3000 HPLC system (ThermoFisher) with UV–vis detection at the maximum absorption wavelength of each compound except for inulin as determined by a spectrophotometric method using a Tecan Sunrise absorbance microplate reader. […] The permeability coefficient (Papp) was calculated as follows: Papp = (ΔQ/Δt)/(C [donor] × A), where ΔQ/Δt represents the permeation rate (mol/s), C [donor] is the initial compound concentration in the donor compartment at time 0 (mol/cm^3), and A represents the surface area of the filter (1.12 cm^2).

[7] = 50 μM, mean ± SD, n.i. = no inhibition

Structure (SMILES): c1ccc(CNc2nnc(-c3c[nH]c4ncccc34)s2)cc1 [Compound 40, N-Benzyl-5-(1H-pyrrolo[2,3-b]pyridin-3-yl)-1,3,4-thiadiazol-2-amine]
TREM2 expression (M2 marker) vs LPS [1]: no significant variations | Neurosphere number (object count per image), neurogenesis [3]: pronounced neurogenesis | Differentiation toward astrocytes (GFAP) [4]: negatively affected astrocytic differentiation | Differentiation toward neurons (DCX) [4]: mild increment | Differentiation toward oligodendrocytes (OLIG2) [4]: inactive regarding oligodendrocytes | Neurotoxicity on CGNs (cell viability compared to control) [2]: not neurotoxic | Neuroprotection on CGNs (cell viability after serum/potassium deprivation) [5]: almost equipotent to inactive compounds

Structure (SMILES): Br.c1cnc2[nH]cc(-c3csc(NCc4ccncc4)n3)c2c1 [Compound 27, N-(Pyridin-4-ylmethyl)-4-(1H-pyrrolo[2,3-b]pyridin-3-yl)thiazol-2-amine Hydrobromide]
Neurosphere dimension (brightfield object total area), maturation [3]: noticeable maturation at days 6 and 7 | Neurosphere number (object count per image), neurogenesis [3]: pronounced neurogenesis | IC50 (FYNα): 3480 ± 680 nM

Structure (SMILES): Br.CN(Cc1ccccc1)c1nc(-c2c[nH]c3ncccc23)cs1 [Compound 33, N-Benzyl-N-methyl-4-(1H-pyrrolo[2,3-b]pyridin-3-yl)thiazol-2-amine Hydrobromide]
IC50 (human recombinant GSK-3β; mean ± SD of at least three independent determinations, ATP near Km): 2450 ± 540 nM | Fyn % Inhibition @ 50 μM (FYNα): n.i. | Neuroprotection on CGNs (cell viability after serum/potassium deprivation) [5]: almost equipotent to inactive compounds

Structure (SMILES): Br.Cc1sc(NCc2ccncc2)nc1-c1c[nH]c2ncccc12 [Compound 42, 5-Methyl-N-(pyridin-4-ylmethyl)-4-(1H-pyrrolo[2,3-b]pyridin-3-yl)thiazol-2-amine Hydrobromide]
Neurosphere dimension (brightfield object total area), maturation [3]: premature increase in dimension | IC50 (FYNα): 200 ± 20 nM

Structure (SMILES): Br.O=[N+]([O-])c1ccc(Nc2nc(-c3c[nH]c4ncccc34)cs2)cc1 [Compound 14, N-(4-Nitrophenyl)-4-(1H-pyrrolo[2,3-b]pyridin-3-yl)thiazol-2-amine Hydrobromide]
inhibition at 50 µM (human recombinant GSK-3β; [7]): 8% | Fyn % Inhibition @ 50 μM (FYNα): n.i.

Continued, in another order:

GSK-3β % Inhibition @ 50 μM (human recombinant GSK-3β; [7]): completely inactive | Fyn % Inhibition @ 50 μM (FYNα): completely inactive
Structure (SMILES): Br.CN(C)c1ccc(CNc2nc(-c3c[nH]c4ncccc34)cs2)cc1 [Compound 26, N-(4-(Dimethylamino)benzyl)-4-(1H-pyrrolo[2,3-b]pyridin-3-yl)thiazol-2-amine Hydrobromide]
TREM2 expression (M2 marker) vs LPS [1]: no significant variations | Neurotoxicity on CGNs (cell viability compared to control) [2]: not neurotoxic

Papp A→B at 90 min, 100 μM [6]: 28 ± 0.53 ×10⁻⁶ cm/s
Structure (SMILES): Cc1cc(=O)n(-c2ccccc2)n1C [Antypirine, antipyrine, reference compound]
